Data: ChEMBL document CHEMBL1129018, “Asymmetric synthesis of cis-()-(2R4S)-4-(phosphonomethyl)-2-piperidinecarboxylic acid, a potent NMDA receptor antagonist” (Bioorg Med Chem Lett, 1996)

Test: Compound was tested for binding activity against N-methyl-D-aspartic acid(NMDA) receptor in rat brain crude synaptic membranes
Type: cell membranes

IC50	Compound
10000 nM	O=C(O)[C@@H]1C[C@H](CP(=O)(O)O)CCN1 (stereo in doubt) [SELFOTEL]
29 nM	O=C(O)[C@@H]1C[C@H](CP(=O)(O)O)CCN1 (stereo in doubt; form 2) [SELFOTEL]
69 nM	O=C(O)[C@@H]1C[C@H](CP(=O)(O)O)CCN1 (stereo in doubt; form 1) [SELFOTEL]
